Assay results reported in patent US9605013B2, “Derivatives of hemin with antibacterial and antiviral activity” (OBSCHESTVO S OGRANICHENNOI OTVETSTVENNOSTIYU …, priority 2011, dated 2017).

Key:
[1] = tested on: Vancomycin-resistant Enterococcus faecium 569; test: Antibacterial specific activity, twofold dilutions, visual growth evaluation; assay type: cell-based; settings: Vancomycin-resistant E. faecium 569; 36° C., 24 hours
Method: (§1) The specific activity of compounds also was determined against bacteria strains such as Staphylococcus aureus No. 25923 ATCC (American Type Culture Collection); Staphylococcus aureus No. 100 KC; Staphylococcus epidermidis No. 533; Enterococcus faecalis No. 559; Enterococcus faecium No. 569, Staphylococcus aureus No. 5 (MRSA), Staphylococcus aureus No. 3797 (MRSA). Staphylococcus aureus was cultured on the Trypticase Soy Agar (BBL) commercially available dry medium. Enterococcus faecalis was cultured on the Columbia Agar (BBL) commercially available dry medium. These media were sterilized by autoclaving at 121° C. for 15 min. Bacterial inoculum was constant and was 5×10^5 CFU/ml (10^5 CFU/0.2 ml). For water-soluble compounds, wells from 2nd through 8th were added with the solvent (water) in an amount of 15 μL per well, then the 1st well was added with 30 μL of the stock solution of the tested compound in […] with a concentration of […], and the concentration was adjusted to 0.007×10^3 M by serial twofold dilutions. A 10-μL portion was taken from every well, and 190 μL of the bacterial culture (10^5 CFU) was added per well. For DMSO-soluble compounds, wells from 2nd through 8th were added with the solvent (DMSO) in an amount of 10 μL per well, then the 1st well was added with 20 μL of the stock solution of the tested compound in […] with a concentration of […], and the concentration was adjusted to 0.039×10^3 M by serial twofold dilutions. A 2-μL portion was taken from each well, and 198 μL of the bacterial culture (10^5 CFU) was added per well.
(§2) The control comprised wells free of tested compounds (culture growth control). In addition, purity control of nutritional media and solvents was used. Plates were incubated in a thermostat at 36° C. for 24 hours.
(§3) Culture growth was evaluated visually by comparison of how microorganisms grew in the presence of tested compounds and in the absence of them. MIC was set equal to the last dilution of a tested agent which suppressed bacterial culture growth.

[2] = tested on: Escherichia coli 4300; test: as above; assay type: cell-based; settings: E. coli 4300; 36° C., 24 hours
Method: [Worded in the source for another organism; this organism is reported under the same test.] as §1, §2, §3

[3] = tested on: Staphylococcus aureus No. 100 KC; test: as above; assay type: cell-based; settings: S. aureus 100 KC; 36° C., 24 hours
Method: as §1, §2, §3

[4] = tested on: Staphylococcus aureus No. 25923 ATCC; test: as above; assay type: cell-based; settings: S. aureus 25923; 36° C., 24 hours
Method: as §1, §2, §3

[5] = tested on: Enterococcus faecalis No. 559; test: as above; assay type: cell-based; settings: E. faecalis 559; 36° C., 24 hours
Method: as §1, §2, §3

[6] = tested on: Staphylococcus epidermidis No. 533; test: as above; assay type: cell-based; settings: S. epidermis 533; 36° C., 24 hours
Method: as §1, §2, §3

[7] = tested on: Staphylococcus aureus No. 5 (MRSA); test: as above; assay type: cell-based; settings: St. aur No. 5 MRSA; 36° C., 24 hours
Method: as §1, §2, §3

[8] = tested on: Staphylococcus aureus No. 3797 (MRSA); test: as above; assay type: cell-based; settings: St. aur No. 3797 MRSA; 36° C., 24 hours
Method: as §1, §2, §3

[9] = tested on: Herpes Simplex Virus type 2 strain G (No. VR-734 ATCC); test: Antiviral activity, virus cytopathogenic action in Vero cells; assay type: cell-based; set-up: key: 0: CPA (cytopathogenic action) is not detected; 1: up to 25% virus-infected monolayer; from 25% to 50%; 3: from 50% to 75%; 4: from 75% to 100%; settings: 48 hours
Method: […] used in the study were used Herpes Simplex Virus type 1 (the Collection of Microorganisms at the Scientific Research Institute of Virology, strain EC), Herpes Simplex Virus type 2 strain G (No. VR-734 ATCC), and human cytomegalovirus strain AD169 (No. VR-538 ATCC). Herpes Simplex viruses type 1 and type 2 were cultured in Vero cells. The cells were incubated in MEM Eagle growth medium (MEM, BioloT, St-Petersburg, 1.3.3) supplemented with 10% fetal bovine serum (BioloT, St-Petersburg, 1.3.12) in Sanyo MCO-15AC gas-flow thermostat (37° C., 5% CO2) (Tokyo, Japan). A seed dose was 2×10^5 cells/ml in the starting inoculum or 2×10^4 cells/well. Herpes Simplex viruses were cultured under the same conditions in the MEM medium without serum (maintenance medium). Starting viral titers were 10^7 TCID50/ml.
For DMSO-soluble preparations, stock solutions were prepared in a concentration of 10 mM in DMSO. For water-soluble preparations, a stock solution prepared had the same concentration in the MEM medium (Minimal Essential Medium) for cell cultures. To control cytotoxicity (see below), the stock solution was diluted in the medium to a concentration of 100 μM and ten-fold serial dilutions of the preparations were made in the MEM medium (for DMSO-soluble compounds—in the MEM medium comprising 3% DMSO). The following concentrations of the preparations were used in the study of […]: if toxicity was not found, the concentrations of 100 μM preparations were 100, 10 and 1 μM; if toxicity was detected, the concentrations of 100 μM preparations were 10, 1, and 0.1 μM. Acyclovir (10 μg/ml) was used for Herpes Simplex viruses of both types as a reference preparation to control the viral model validity.
To study antiviral activity, plate wells with a cell monolayer were added with the preparations in an amount of 0.1 ml/well. To compensate a reduction in the concentration of the preparations, which takes place in the following addition of viruses, twofold concentrations of compounds (i.e. 200, 20 and 2 or 20, 2 and 0.2 μM for […] concentrations of 100 μM preparations, respectively) were used, incubated for an hour and then were infected with the examined 0.1 ml/well viruses in doses 1, 10 and 100 TCID50 (50% tissue infectious dose).
The virus-specific cytogenic action was manifested in an increase in the size of cells, their rounding, and detachment from a substrate. These morphological characteristics served as their marked difference from the cells subjected to a toxic action of high concentrations of the examined preparations. The latter acquired spindle-like shape, lost contacts with neighboring cells of the monolayer, and their boundaries became more distinct.
Intensity of the virus-specific changes in the cells were semi-quantified using a 4-score system: 0—CPA (cytopathogenic action) is not detected; 1—up to 25% virus-infected monolayer; 2—from 25% to 50%; 3—from 50% to 75%; and 4—from 75% to 100%. The antiviral activity of a compound was evaluated according to their ability to reduce the manifestation of cytopathogenic action in the plate wells compared to the control values. Differences with the control values by 1 score and more were considered to be significant.

[10] = Water solubility
[11] = tested on: Bacillus subtilis BKM B-501; test: Antibacterial activity, serial dilutions in liquid MH medium; assay type: cell-based; settings: for MIC: MH medium, 20 h, 37° C., 100% growth inhibition
Method: (§4) The antibacterial activity of the compounds was determined against strains of gram-positive bacteria such as Staphylococcus aureus 209P, Enterococcus faecalis BKM B-871, Micrococcus luteus BKM Ac-2230, Bacillus subtilis BKM B-501, and gram-negative bacteria such as Pseudomonas aeruginosa PAO1 and Escherichia coli KM MGU C-600. BKM strains were acquired from the All-Russia Collection of Microorganisms at the Institute for Biochemistry and Physiology of Microorganisms, Russian Academy of Sciences. Strain Staphylococcus aureus 209P was acquired from the Collection of Microorganisms at the Department of microbiology of the Faculty of Biology of Lomonosov Moscow State University, and Pseudomonas aeruginosa PAO1 was acquired from the Collection of Microorganisms at the Institute of Bioorganic Chemistry of the Russian Academy of Sciences.
(§5) The main parameters characterizing the antibacterial activity are the minimal inhibitory concentration (MIC) and minimal bactericidal concentration (MBC). […] MBC is the least concentration that causes the death of all cells.
(§6) MIC was quantified by inhibiting culture growth in a liquid medium with serial dilutions of compounds using a modified procedure [Amsterdam, D., 1966. “Susceptibility testing of antimicrobials in liquid media,” pp. 52-111. In Loman, V., ed. Antibiotics in laboratory medicine, 4th ed. Williams and Wilkins, Baltimore].
(§7) Bacteria were cultured and tested on an MH liquid medium (Mueller-Hinton medium: a dry extract of beef broth, 4 g/L; starch, 1.5 g/L; casein hydrolyzate, 17.5 g/L; Sigma-Fluka Catalog No. 70192) at 37° C., 100% humidity, and under stirring. Cultures (within 4 to 7 passages after thawing) in the exponential growth phase were used for tests.
(§8) All tested compounds absorb light at 595 nm, a wavelength used for evaluating bacterial culture growth. Therefore, a correction for absorption was applied in estimating the optical density of bacterial suspensions for each compound with account for its concentration in the well. Bacterial growth inhibition (GI) as percentage after 20 hours of incubating cells with compounds was derived from the optical density (A) measured in every well at a wavelength of 595 nm using the equation: GIi=[(Act−Ac0)−(Ait−Ai0)]×100/(Act−Ac0), (1) wherein the subscripts have the following meanings: i denotes the well number, c denotes a control well with bacteria whereto the tested compound is not inserted, 0 refers to the measurement taken immediately once the tested compound was inserted to the well, and t refers to the measurement taken 20 hours after the compound was inserted.
(§9) The protocol for the determination of experimental antibacterial activity of the tested compounds was as follows. A cryovial with the test strain culture in a medium with 7% DMSO stored in liquid nitrogen, was rapidly defrosted, and 1.5 mL of the fresh MH medium was inoculated with 100 μL of the cell suspension. Cells were grown for one day at 37° C. and stirred on an orbital shaker at 150 rpm. The morphologic features of the strain and the absence of contamination with foreign bacteria were verified by: (a) inoculation on an agarized (15 g/L agar) MH medium and observation of the shape and color of the grown colonies and (b) examination of characteristic morphologic features under a microscope (Mikmed-2, LOMO, Russia) equipped with a 40× objective lens. Further, the bacteria were cultured in 1 mL of the liquid MH medium at 37° C. under stirring. The cells were reseeded every day. Cell cultures were used in tests starting with 3rd reseeding and ending with 6th one.
(§10) For testing, 5 μL of a bacterial suspension in the stationary growth phase was transferred to 1 mL of a sterile MH medium and incubated until the exponential growth phase was attained (3 to 5 h, 37° C., stirring at 150 rpm). To estimate the microorganism concentration, the optical density (A) of the resulting bacterial culture was measured at a wavelength of 595 nm. […]

[12] = tested on: Micrococcus luteus BKM Ac-2230; test: as above; assay type: cell-based; settings: for MIC: MH medium, 20 h, 37° C., 100% growth inhibition; for MBC: no colonies on agarized MH medium
Method: as §4, §5, §6, §7, §8, §9, §10

[13] = tested on: Enterococcus faecalis BKM B-871; test: as above; assay type: cell-based; settings: MH medium, 20 h, 37° C., 100% growth inhibition
Method: as §4, §5, §6, §7, §8, §9, §10

[14] = HSV-2, virus dose 1, concentration 0.1 μM
[15] = HSV-2, virus dose 1, concentration 1 μM
[16] = HSV-2, virus dose 1, concentration 10 μM
[17] = HSV-2, virus dose 10, concentration 0.1 μM
[18] = HSV-2, virus dose 10, concentration 1 μM
[19] = HSV-2, virus dose 10, concentration 10 μM
[20] = HSV-2, virus dose 100, concentration 0.1 μM
[21] = HSV-2, virus dose 100, concentration 1 μM
[22] = HSV-2, virus dose 100, concentration 10 μM

In the case of “6,7-bis-[(Diamide N^α-L-Glycyl)-L-glutamyl]-Protohemin (IX) [XIII]”, the MIC [1] is reported as over 50.0 µM, the MIC [2] is reported as over 50.0 µM and the MIC [3] is reported as 12.5 µM. For the same substance, the MIC [4] was 12.5 µM, the MIC [5] was 12.5 µM and the MIC [6] was 12.5 µM. For the same substance, the MIC [7] was 83 µM, the MIC [8] was 50 µM and the “manifestation of the virus CPA” value [9, 14] was 1 (up to 25% virus-infected monolayer). The “manifestation of the virus CPA” value [9, 15] was 1 (up to 25% virus-infected monolayer), the “manifestation of the virus CPA” value [9, 16] was 0.5 scores and the “manifestation of the virus CPA” value [9, 17] was 2 (from 25% to 50%). For the same substance, the “manifestation of the virus CPA” value [9, 18] was 2 (from 25% to 50%), the “manifestation of the virus CPA” value [9, 19] was 1^1 (up to 25% virus-infected monolayer) and the “manifestation of the virus CPA” value [9, 20] was 3 (from 50% to 75%). For the same substance, the “manifestation of the virus CPA” value [9, 21] was 3 (from 50% to 75%), the “manifestation of the virus CPA” value [9, 22] was 3 (from 50% to 75%) and the water solubility [10] was “water-soluble”.

In the case of “6,7-bis-[(Dimethyl Ester N^α-L-Glycyl)-L-glutamyl]-Protohemin (IX) [XIV]”, the MIC [11] is reported as 6.3 µM, the MBC ([11]; no colonies on agarized MH medium) is reported as 25 µM and the MIC [12] is reported as 1.6 µM. For the same substance, the MBC [12] was 6.3 µM, the MIC [1] was over 50.0 µM and the MIC [2] was over 50.0 µM. The MIC [3] was 2.6 µM, the MIC [4] was 0.39 µM and the MIC [5] was 3.12 µM. It also gave an MIC [6] of 1.04 µM, an MIC [7] of 3.12 µM and an MIC [8] of 2.6 µM. For the same substance, the water solubility [10] was “water-insoluble”.

“6,7-bis-[(Dimethyl Ester N^α-L-Seryl)-L-glutamyl]-Protohemin (IX)” gave an MIC [11] of 50 µM, an MIC [13] of 50 µM and an MIC [12] of 12.5 µM. The MBC [12] was 25 µM, the “manifestation of the virus CPA” value [9, 14] was 1 (up to 25% virus-infected monolayer) and the “manifestation of the virus CPA” value [9, 15] was 1 (up to 25% virus-infected monolayer). For the same substance, the “manifestation of the virus CPA” value [9, 16] was 0^1, the “manifestation of the virus CPA” value [9, 17] was 2 (from 25% to 50%) and the “manifestation of the virus CPA” value [9, 18] was 2 (from 25% to 50%). The “manifestation of the virus CPA” value [9, 19] was 1.5 scores, the “manifestation of the virus CPA” value [9, 20] was 3 (from 50% to 75%) and the “manifestation of the virus CPA” value [9, 21] was 3 (from 50% to 75%). For the same substance, the “manifestation of the virus CPA” value [9, 22] was 3 (from 50% to 75%) and the water solubility [10] was “water-soluble”.
